Test system: M. tuberculosis
Test: Extracellular activity against M. tuberculosis in cholesterol media (Alamar Blue reduction assay)
Type: cell-based, Mycobacterium tuberculosis
Conditions: Mycobacterium tuberculosis, 240 h, 7H12-Cholesterol media, 10 days; read-out: Cholesterol broth: alamar blue--EC50

| Structure (SMILES) | EC50 [nM] |
| --- | --- |
| Cc1nonc1CC(=O)N1CCC(c2nc(C3CCC(F)(F)CC3)no2)CC1 [Compound 110, 1-(4-(3-(4,4-difluorocyclohexyl)-1,2,4-oxadiazol-5-yl)piperidin-1-yl)-2-(4-methyl-1,2,5-oxadiazol-3-yl)ethan-1-one] | 969 |
| Cc1nonc1CC(=O)N1CCC(O)(c2nc(C3CCC(F)(F)CC3)no2)CC1 [Compound 111, 1-(4-(3-(4,4-difluorocyclohexyl)-1,2,4-oxadiazol-5-yl)-4-hydroxypiperidin-1-yl)-2-(4-methyl-1,2,5-oxadiazol-3-yl)ethan-1-one] | > 10000 |
| Cc1nonc1CC(=O)N1CCC(c2nc(C3CCCC(F)(F)C3)no2)CC1 (centres unmarked) [Compound 112, 1-(4-(3-(3,3-difluorocyclohexyl)-1,2,4-oxadiazol-5-yl)piperidin-1-yl)-2-(4-methyl-1,2,5-oxadiazol-3-yl)ethan-1-one] | 2670 |
| Cc1nonc1CC(=O)N1CCC(c2nc([C@@H]3CC[C@H](F)C3)no2)CC1 [Compound 113, 1-(4-(3-((1R,3S)-3-fluorocyclopentyl)-1,2,4-oxadiazol-5-yl)piperidin-1-yl)-2-(4-methyl-1,2,5-oxadiazol-3-yl)ethan-1-one] | > 25000 |
| Cc1nonc1CC(=O)N1CCC(c2nc([C@@H]3CC[C@@H](F)C3)no2)CC1 [Compound 114, 1-(4-(3-((1R,3R)-3-fluorocyclopentyl)-1,2,4-oxadiazol-5-yl)piperidin-1-yl)-2-(4-methyl-1,2,5-oxadiazol-3-yl)ethan-1-one] | 7040 |
| Cc1nonc1CC(=O)N1CCC(c2nc(C3CCC(F)CC3)no2)CC1 (centres unmarked) [Compound 115, 1-(4-(3-(4-fluorocyclohexyl)-1,2,4-oxadiazol-5-yl)piperidin-1-yl)-2-(4-methyl-1,2,5-oxadiazol-3-yl)ethan-1-one] | > 25000 |
| Cc1nonc1CC(=O)N1CCC(c2noc(C34CC(F)(C3)C4)n2)CC1 [Compound 116, 1-(4-(5-(3-fluorobicyclo[1.1.1]pentan-1-yl)-1,2,4-oxadiazol-3-yl)piperidin-1-yl)-2-(4-methyl-1,2,5-oxadiazol-3-yl)ethan-1-one] | 9230 |
| Cc1nonc1CC(=O)N1CCC(c2nc(-c3ccc(C(F)(F)F)c(F)c3)no2)CC1 [Compound 117] | 278 |
| Cc1nonc1CC(=O)N1CCC(c2nc(-c3ccc(Cl)c(F)c3)no2)CC1 [Compound 118, 1-(4-(3-(4-chloro-3-fluorophenyl)-1,2,4-oxadiazol-5-yl)piperidin-1-yl)-2-(4-methyl-1,2,5-oxadiazol-3-yl)ethan-1-one] | 80.5 |
| Cc1nonc1CC(=O)N1CCC(c2nc(-c3cc(F)cc(Cl)c3)no2)CC1 [Compound 119, 1-(4-(3-(3-chloro-5-fluorophenyl)-1,2,4-oxadiazol-5-yl)piperidin-1-yl)-2-(4-methyl-1,2,5-oxadiazol-3-yl)ethan-1-one] | 470 |
| Cc1nonc1CC(=O)N1CCC(c2nc(-c3ccc(Cl)cc3F)no2)CC1 [Compound 120, 1-(4-(3-(4-chloro-2-fluorophenyl)-1,2,4-oxadiazol-5-yl)piperidin-1-yl)-2-(4-methyl-1,2,5-oxadiazol-3-yl)ethan-1-one] | 370 |
| Cc1nonc1CC(=O)N1CCC(c2nc(-c3ccc(F)cc3Cl)no2)CC1 [Compound 121, 1-(4-(3-(2-chloro-4-fluorophenyl)-1,2,4-oxadiazol-5-yl)piperidin-1-yl)-2-(4-methyl-1,2,5-oxadiazol-3-yl)ethan-1-one] | 380 |
| Cc1nonc1CC(=O)N1CCC(c2nc(-c3ccc(F)cc3F)no2)CC1 [Compound 122, 1-(4-(3-(2,4-difluorophenyl)-1,2,4-oxadiazol-5-yl)piperidin-1-yl)-2-(4-methyl-1,2,5-oxadiazol-3-yl)ethan-1-one] | 390 |
| Cc1nonc1CC(=O)N1CCC(c2nc(-c3ccc(F)cc3C(F)(F)F)no2)CC1 [Compound 123] | 1480 |
| Cc1nonc1CC(=O)N1CCC(c2nc(-c3ccc(F)c(C(F)(F)F)c3)no2)CC1 [Compound 124] | 334 |
| Cc1nonc1CC(=O)N1CCC(c2nc(-c3ccc(F)c(OC(F)(F)F)c3)no2)CC1 [Compound 125] | 288 |
| Cc1nonc1CC(=O)N1CCC(n2ccc(-c3ccc(F)cc3)n2)CC1 [Compound 127, 1-(4-(3-(4-fluorophenyl)-1H-pyrazol-1-yl)piperidin-1-yl)-2-(4-methyl-1,2,5-oxadiazol-3-yl)ethan-1-one] | 2970 |
| Cc1nonc1CC(=O)N1CCC(n2cc(-c3ccc(F)cc3)nn2)CC1 [Compound 128, 1-(4-(4-(4-fluorophenyl)-1H-1,2,3-triazol-1-yl)piperidin-1-yl)-2-(4-methyl-1,2,5-oxadiazol-3-yl)ethan-1-one] | > 10000 |
| Cc1nonc1CC(=O)N1CCC(c2nnc(-c3ccc(F)cc3)o2)CC1 [Compound 129, 1-(4-(5-(4-fluorophenyl)-1,3,4-oxadiazol-2-yl)piperidin-1-yl)-2-(4-methyl-1,2,5-oxadiazol-3-yl)ethan-1-one] | > 10000 |

| Structure (SMILES) | EC50 [nM] |
| --- | --- |
| Cc1nonc1CC(=O)N1CCC(c2nc(-c3ccc(F)cc3)no2)CC1 [Compound 130, 1-(4-(3-(4-fluorophenyl)-1,2,4-oxadiazol-5-yl)piperidin-1-yl)-2-(4-methyl-1,2,5-oxadiazol-3-yl)ethan-1-one] | 275 |
| Cc1nonc1CC(=O)N1CCC(c2noc(-c3ccc(F)cc3)n2)CC1 [Compound 132, 1-(4-(5-(4-fluorophenyl)-1,2,4-oxadiazol-3-yl)piperidin-1-yl)-2-(4-methyl-1,2,5-oxadiazol-3-yl)ethan-1-one] | 1070 |
| Cc1nonc1CC(=O)N1CCC(c2nc(-c3ccc(F)cc3)co2)CC1 [Compound 134, 1-(4-(4-(4-fluorophenyl)oxazol-2-yl)piperidin-1-yl)-2-(4-methyl-1,2,5-oxadiazol-3-yl)ethan-1-one] | 1430 |
| Cc1nonc1CC(=O)N1CCC(c2cc(-c3ccc(F)cc3)no2)CC1 [Compound 135, 1-(4-(3-(4-fluorophenyl)isoxazol-5-yl)piperidin-1-yl)-2-(4-methyl-1,2,5-oxadiazol-3-yl)ethan-1-one] | 1580 |
| Cc1nonc1CC(=O)N1CCC(C)(c2nc(-c3ccc(F)cc3)no2)CC1 [Compound 138, 1-(4-(3-(4-fluorophenyl)-1,2,4-oxadiazol-5-yl)-4-methylpiperidin-1-yl)-2-(4-methyl-1,2,5-oxadiazol-3-yl)ethan-1-one] | 1470 |
| Cc1nonc1CC(=O)N1CCC(c2nc(-c3ccc(F)cc3)no2)(C(F)(F)F)CC1 [Compound 139, 1-(4-(3-(4-fluorophenyl)-1,2,4-oxadiazol-5-yl)-4-(trifluoromethyl)piperidin-1-yl)-2-(4-methyl-1,2,5-oxadiazol-3-yl)ethan-1-one] | > 10000 |
| Cc1nonc1CC(=O)N1CCC(O)(c2nc(-c3ccc(F)cc3)no2)CC1 [Compound 140, 1-(4-(3-(4-fluorophenyl)-1,2,4-oxadiazol-5-yl)-4-hydroxypiperidin-1-yl)-2-(4-methyl-1,2,5-oxadiazol-3-yl)ethan-1-one] | 685 |
| Cc1nonc1CC(=O)N1CCC(c2nc(-c3ccc(F)cn3)no2)CC1 [Compound 141, 1-(4-(3-(5-fluoropyridin-2-yl)-1,2,4-oxadiazol-5-yl)piperidin-1-yl)-2-(4-methyl-1,2,5-oxadiazol-3-yl)ethan-1-one] | > 10000 |
| Cc1nonc1CC(=O)N1CCC(c2nc(Cc3ccc(F)cc3)no2)CC1 [Compound 142, 1-(4-(3-(4-fluorobenzyl)-1,2,4-oxadiazol-5-yl)piperidin-1-yl)-2-(4-methyl-1,2,5-oxadiazol-3-yl)ethan-1-one] | 6640 |
| Cc1nonc1CC(=O)N1CCC(c2nc(-c3cccc(F)c3F)no2)CC1 [Compound 143, 1-(4-(3-(2,3-difluorophenyl)-1,2,4-oxadiazol-5-yl)piperidin-1-yl)-2-(4-methyl-1,2,5-oxadiazol-3-yl)ethan-1-one] | 1200 |
| Cc1nonc1CC(=O)N1CCC(c2nc(-c3cccc(F)c3)no2)CC1 [Compound 144, 1-(4-(3-(3-fluorophenyl)-1,2,4-oxadiazol-5-yl)piperidin-1-yl)-2-(4-methyl-1,2,5-oxadiazol-3-yl)ethan-1-one] | 590 |
| Cc1nonc1CC(=O)N1CCC(n2nnc(-c3cccc(F)c3)n2)CC1 [Compound 145, 1-(4-(5-(3-fluorophenyl)-2H-tetrazol-2-yl)piperidin-1-yl)-2-(4-methyl-1,2,5-oxadiazol-3-yl)ethan-1-one] | 963 |
| Cc1nonc1CC(=O)N1CCC(c2nc(-c3ccccc3F)no2)CC1 [Compound 146, 1-(4-(3-(2-fluorophenyl)-1,2,4-oxadiazol-5-yl)piperidin-1-yl)-2-(4-methyl-1,2,5-oxadiazol-3-yl)ethan-1-one] | 1360 |
| Cc1nonc1CC(=O)N1CCC(n2nnc(-c3ccccc3F)n2)CC1 [Compound 147, 1-(4-(5-(2-fluorophenyl)-2H-tetrazol-2-yl)piperidin-1-yl)-2-(4-methyl-1,2,5-oxadiazol-3-yl)ethan-1-one] | 1450 |
| Cc1nonc1CC(=O)N1CCC(c2nc(-c3ncc(F)cn3)no2)CC1 [Compound 148, 1-(4-(3-(5-fluoropyrimidin-2-yl)-1,2,4-oxadiazol-5-yl)piperidin-1-yl)-2-(4-methyl-1,2,5-oxadiazol-3-yl)ethan-1-one] | > 10000 |
| Cc1nonc1CC(=O)N1CCC(n2nnc(-c3ccc(C(N)=O)cc3)n2)CC1 [Compound 149, 4-(2-(1-(2-(4-methyl-1,2,5-oxadiazol-3-yl)acetyl)piperidin-4-yl)-2H-tetrazol-5-yl)benzamide] | > 10000 |
| Cc1nonc1CC(=O)N1CCC(n2cc(C(=O)NCCO)nn2)CC1 [Compound 150, N-(2-hydroxyethyl)-1-(1-(2-(4-methyl-1,2,5-oxadiazol-3-yl)acetyl)piperidin-4-yl)-1H-1,2,3-triazole-4-carboxamide] | > 10000 |
| Cc1nonc1CS(=O)(=O)N1CCC(c2nc(-c3ccc(F)cc3)no2)CC1 [Compound 151, 3-(4-fluorophenyl)-5-(1-(((4-methyl-1,2,5-oxadiazol-3-yl)methyl)sulfonyl)piperidin-4-yl)-1,2,4-oxadiazole] | > 10000 |
| Cc1nonc1NC(=O)N1CCC(c2nc(-c3ccc(F)cc3)no2)CC1 [Compound 152, 4-(3-(4-fluorophenyl)-1,2,4-oxadiazol-5-yl)-N-(4-methyl-1,2,5-oxadiazol-3-yl)piperidine-1-carboxamide] | 653 |

From patent publication US20260048047A1, “SMALL-MOLECULE ACTIVATORS OF MYCOBACTERIUM TUBERCULOSIS ADENYLYL CYCLASE” (priority 2022, published 2026)
